Test results taken from patent US8119640B2, “Hedgehog pathway antagonists methods of use” (The Board of Trustees of the Leland Stanford Junior …, priority 2008, dated 2012).
Where two headings read alike, the source gives them in different places.

Assays:
Hh pathway [1] = experiment: Shh-EGFP assay for Hh pathway activation; format: cell-based; conditions: Shh-N-conditioned medium; HPIs at ten-fold their Shh-LIGHT2 IC50 or 30 μM, whichever lower
Description: Shh-EGFP assay for Hh pathway activation. A Gli-dependent enhanced green fluorescent protein reporter (Shh-EGFP) was generated by excising firefly luciferase cDNA from the 8XGliBs vector using NcoI/Hpal, and ligating in EGFP cDNA excised from the pEGFP-C1 vector (Clontech) by NcoI/Af/II digestion. […] The cells were grown to confluency and treated with DMEM containing 0.5% CS, 100 U/mL penicillin, 0.1 mg/mL streptomycin, and 5% Shh-N-conditioned medium for 30 h. Following Shh-N treatment, the adherent cultures were dissociated into single cells with 0.05% Trypsin-EDTA (300 μL/well; Invitrogen) for 5 min. The cells were then suspended in 1 mL of PBS containing 1% CS and sorted on a BD FACSAria (excitation: 488 nm; emission: 530/30 nm) to enrich for cells expressing EGFP in a Shh-N-responsive manner. […] To identify Shh-EGFP clones with maximum Shh-N-responsiveness, individual lines were seeded into 24-well plates (45,000 cell/well) and cultured for 48 h. The cells were then treated with DMEM containing 0.5% CS, 100 U/mL pencillin, 0.1 mg/mL streptomycin or the culture medium plus 5% Shh-N-conditioned medium. After 30 h, the adherent cultures were treated with 0.05% trypsin-EDTA (150 μL/well; Invitrogen) for 5 min to dissociate them into single cells. The cells were then resuspended in 500 μL of PBS containing 1% CS and analyzed on a BD FACSCalibur (excitation: 488 nm; emission: 530/30 nm). 10,000 cells were used to assess EGFP expression levels as a measure of Hh pathway activation, and the data was analyzed using FlowJo software (Tree Star). Clones with low basal EGFP levels and maximum Shh-Ninduced EGFP expression were selected for further use. To assess the inhibitory activities of the HPIs in the Shh-EGFP cells, a clonal line with maximum Shh-responsiveness was cultured in 24-well plates as described above. […] The resulting EGFP levels were then evaluated by FACS and quantified using the FlowJo software.

Smo = Smo (Mus musculus, UniProt P56726); experiment: BODIPY-cyclopamine/Smo binding assay; set-up: expressed in transfected cells; host or cells: HEK-293T; species or system murine; conditions: 5 nM BODIPY-cyclopamine, Smo-overexpressing HEK-293T cells, HPIs 20 μM
Description: BODIPY-cyclopamine/Smo binding assay. Smo-binding assays were conducted with BODIPY-cyclopamine and Smooverexpressing and HEK-293T cells as previously described, using a CMV-promoter based SV40 origin-containing expression construct for Smo-Myc3 (murine Smo containing three consecutive Myc epitopes at the C-terminus). […] The cells were cultured until they reached 55 to 65% confluency (14-18 h), after which they were transfected with the Smo-Myc3 expression construct and FuGENE (Roche) according to the manufacturer's protocols. 24 h after transfection, the cells were washed with phosphate-buffered saline (PBS) and cultured in DMEM containing 0.5% FBS, 5 nM BODIPY-cyclopamine, and individual HPIs (20 μM). After 30 min, 10 μM Hoescht 33342 was added to each well, and the HPIs were incubated with the cells for an additional 60 min. The cells were then washed two times with PBS buffer, mounted in Prolong Gold (Invitrogen) and immediately imaged using a DM4500B compound microscope (Leica).

Hh pathway [2] = experiment: Shh-LIGHT2 assay for Hh pathway activation (Gli-dependent firefly luciferase); format: cell-based
Description: Shh-LIGHT2 assay for Hh pathway activation and library screening conditions. h-N-conditioned medium was prepared as previously described. […] For 96-well plate assays, Shh-LIGHT2 cells were seeded into each plate (10,000 cells/well) and cultured to confluency. The Shh-LIGHT2 cells were then grown in DMEM containing 0.5% CS, 100 U/mL penicillin, 0.1 mg/mL streptomycin, either 5% Shh-N-conditioned medium or 500 nM SAG, and various concentrations of the HPIs. After the cells were cultured for another 30 h, the resulting firefly and Renilla luciferase activities were measured using a Dual Luciferase Reporter kit (Promega) and a Veritas microplate luminometer (Turner Biosystems).
When the cells reached >90% confluency, they were removed by trypsinization and diluted to a final volume of 50 mL medium. This cell suspension was then plated into clear-bottom, white-walled 384-well plates using a Titertek Multidrop dispenser (50 μL/well) and the cells were cultured until they reached confluency (3-4 days). […] The plates were then placed into an automated Staccato system (Caliper Life Sciences), which includes an automated CO2 incubator. An automated protocol was then run, in 3 which a Multidrop dispenser added 10 μL of a SAG solution in 0.5% CS medium (final SAG concentration of 500 nM) to columns 1-22 and 100 nL of each compound solution was added to the plates using a V&P Scientific pin tool, resulting in a final compound screening concentration of 10 μM. The SAG-free wells were used as negative controls. After 28-32 h, the assay medium was manually removed and the plates were frozen. To assay the firefly luciferase activities, the plates were thawed and placed into a Twister II stacker in the Staccato system. Bright-Glo luciferase substrate (Promega) was added by the Multidrop dispenser and the plates were analyzed on an Analyst GT microplate reader (2 min in the dark, 0.2 sec integration/well; Molecular Devices). Hits were defined as compounds that reduce the firefly luciferase signal by at least 50% compared to inhibitor-free controls. Primary hits were then re-tested in duplicate in an eight-point, 1:1 serially diluted doseresponse curve with a starting concentration of 20 μM. In these experiments, the median inhibitory concentration (IC50) for both firefly and Renilla luciferase were determined using a Dual-Glo kit (Promega).

Hh pathway [3] = experiment: Su(fu)-/- fibroblasts assay for Hh pathway activation; format: cell-based; conditions: for % Inhibition Su(fu)-/- MEFs: Gli-dependent firefly luciferase, 15 μM HPI-1, 20 μM HPI-2, 30 μM HPI-3, 30 μM HPI-4, 1440 min; for Toxicity noted in Su(fu)-/- MEFs: printed instead of % inhibition
Description: Su(fu)^−/− fibroblasts assay for Hh pathway activation. […] After 24 h, the cells were transfected with Fugene HD (Roche), 8xGliBS-FL (95 ng/well), phRLSV40 (5 ng/well; Promega), and pEGFP-C1 (300 ng/well as a carrier; Clontech) according to the manufacturer's protocols. […] The resulting firefly and Renilla luciferase activities were measured using a dual luciferase kit and Veritas microplate luminometer.

[4] = Shh Light2, stimulated with 500 nM SAG, read-out: IC50 (uM) SAG/Shh-LIGHT2 cells
[5] = Shh Light2, stimulated with Shh-N-conditioned medium, read-out: IC50 (uM) Shh/Shh-LIGHT2 cells
[6] = SAG-stimulated Shh-LIGHT2 cells, firefly luciferase, read-out: median inhibitory concentrations (IC50s) in the screen

Chain of Smo (P56726 33-793): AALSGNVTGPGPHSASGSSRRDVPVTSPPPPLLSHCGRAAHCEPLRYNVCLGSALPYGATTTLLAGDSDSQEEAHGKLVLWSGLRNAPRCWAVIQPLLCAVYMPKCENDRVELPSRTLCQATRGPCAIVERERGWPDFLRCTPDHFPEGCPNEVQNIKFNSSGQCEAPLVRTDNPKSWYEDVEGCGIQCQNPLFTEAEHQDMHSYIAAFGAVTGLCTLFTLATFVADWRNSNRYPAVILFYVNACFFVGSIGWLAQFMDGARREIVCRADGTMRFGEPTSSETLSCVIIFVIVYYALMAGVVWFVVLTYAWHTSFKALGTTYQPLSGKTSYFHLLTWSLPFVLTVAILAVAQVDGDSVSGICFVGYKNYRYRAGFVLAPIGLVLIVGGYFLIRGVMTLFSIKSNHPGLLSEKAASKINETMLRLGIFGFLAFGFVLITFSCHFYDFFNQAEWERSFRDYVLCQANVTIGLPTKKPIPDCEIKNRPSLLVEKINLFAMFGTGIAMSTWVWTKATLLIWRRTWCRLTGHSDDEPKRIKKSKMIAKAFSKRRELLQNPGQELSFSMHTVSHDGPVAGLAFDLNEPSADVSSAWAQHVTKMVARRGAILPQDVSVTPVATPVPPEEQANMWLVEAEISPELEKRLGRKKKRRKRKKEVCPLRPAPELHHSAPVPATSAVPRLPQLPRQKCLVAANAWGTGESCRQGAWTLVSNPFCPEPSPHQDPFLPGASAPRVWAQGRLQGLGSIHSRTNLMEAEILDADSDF

| SMILES | % Inhibition Shh-GFP cells (Hh pathway [1]) [%] | BODIPY-cyclopamine competition (Smo) | IC50 (Hh pathway [2]; [4]) [µM] | IC50 (Hh pathway [2]; [5]) [µM] | % Inhibition Su(fu)-/- MEFs (Hh pathway [3]) [%] | IC50 (Hh pathway [2]; [6]) [µM] | Toxicity noted in Su(fu)-/- MEFs (Hh pathway [3]) | IC50 (Hh pathway [2]; Shh Light2, read-out: IC50 (uM) SAG/Shh-LIGHT2 cells) [µM] | IC50 (Hh pathway [2]; Shh Light2, read-out: IC50 (uM) Shh/Shh-LIGHT2 cells) [µM] | Repression of constitutive Hh pathway activity in Su(fu)-/- fibroblasts (Hh pathway [3]) |
| --- | --- | --- | --- | --- | --- | --- | --- | --- | --- | --- |
| O=S(=O)(Nc1cc(Cl)c(Cl)cc1Cl)c1ccc(F)cc1 [Compound 10] | 78.8 | No | 2.2 | 2.2 | 81.8 | – | – | – | – | – |
| OCCNc1nc(N2CCN(c3ccccc3)CC2)nc2ccccc12 [Compound 11] | 76.7 | No | 1.5 | 2 | 70.7 | < 10 | – | – | – | – |
| CC(C)(C)N(CCNS(=O)(=O)c1ccc(-c2cc(C(F)(F)F)no2)s1)Cc1ccco1 [Compound 12] | 87.5 | No | 2 | 2 | – | – | Toxic at 20 | – | – | – |
| CN1CCN(C2Cc3ccccc3Sc3ccccc32)CC1 (stereo not shown) [Compound 13] | 78.3 | No | 1.6 | 1.4 | – | – | Toxic at 15 | – | – | – |
| CCOc1ccc2ncc(C(=O)c3ccc(C)cc3)c(N3CCCC3)c2c1 [Compound 14] | 67.2 | No | – | – | 84.3 | – | – | 5.5 | 5.5 | – |
| O=C(Nc1nnc(S(=O)(=O)N2CCCCC2)s1)c1cccc(Br)c1 [Compound 15] | 86.9 | No | 5 | 4.5 | 89.1 | – | – | – | – | – |
| CCOc1ccc(CCNc2cnnc3c(Cl)cccc23)cc1OCC [Compound 16] | 82.7 | No | 8 | 4.5 | 62.1 | – | – | – | – | – |
| COc1ccc(OC)c2c1cc1n2CC(C)(C(=O)NC2CCCCCCC2)N(CCN(C)C)C1=O (stereo not shown) [Compound 17] | 80.2 | No | 2 | 2 | 89.1 | < 10 | – | – | – | reduce Hh pathway activity in these cells to near-basal levels |
| N#CC(C(=O)c1ccc(Cl)cc1Cl)=C1NC(=O)c2ccccc2N1 [Compound 18] | 80 | No | 8 | 7.5 | 58.5 | < 10 | – | – | – | – |
